Active and inactive are the calls of the source. The calls are words filed in the database; no cut-off is given here.
Columns and labels:
[1] = tested on: Trypanosoma brucei rhodesiense; assay: Antitrypanosomal activity against Trypanosoma brucei rhodesiense STIB900 trypomastigotes incubated for 70 hrs by resazurin dye based microplate fluorometer; format: functional, organism-based; details: STIB900, 70 h
Leishmania donovani = assay: Antitrypanosomal activity against Leishmania donovani amastigotes MHOM-ET-67/L8; format: functional, organism-based
[2] = Cytotoxicity against rat L6 cells; format: toxicity, cell-based
Trypanosoma cruzi = assay: Antitrypanosomal activity against Trypanosoma cruzi Tulahuen C4; format: functional, organism-based
[3] = tested on: Trypanosoma brucei rhodesiense; assay: Antitrypanosomal activity against Trypanosoma brucei rhodesiense; format: functional, organism-based

| Structure (SMILES) | EC50 [1] [µM] | EC50 [3] [µM] | EC90 [3] [µM] | Activity (Leishmania donovani) | EC50 [2] [µM] | Activity (Trypanosoma cruzi) |
| --- | --- | --- | --- | --- | --- | --- |
| CN1CCN(c2ccc(-c3cc(-c4cccc(Cl)c4Cl)ncn3)cc2)CC1 | 1.8 | – | – | inactive | 18.1 | inactive |
| COc1cc([C@@H]2c3cc4c(cc3[C@H](O)[C@H]3COC(=O)[C@H]23)OCO4)cc(OC)c1OC [PODOFILOX] | – | – | – | – | 0.02 | – |
| Cc1nc(-c2ccc(N3CCN(C)CC3)cc2)cc(-c2ccccc2[N+](=O)[O-])n1 | 13.5 | – | – | inactive | 40.2 | inactive |
| CN1CCN(c2ccc(-c3cc(-c4ccccc4)ncn3)cc2)CC1 | 3.8 | – | – | inactive | 42.7 | inactive |
| CN1CCN(c2ccc(-c3cc(-c4ccccc4Cl)ncn3)cc2)CC1 | 5.8 | – | – | inactive | 42.6 | inactive |
| Cc1nc(-c2ccc(N3CCN(C)CC3)cc2)cc(-c2cccc(Cl)c2Cl)n1 | 3.6 | – | – | inactive | 37.3 | inactive |
| CN1CCN(c2ccc(-c3cc(-c4ccccc4)nc(N)n3)cc2)CC1 | 3.6 | – | – | inactive | 30 | inactive |
| CN1CCN(c2ccc(-c3cc(-c4ccc(Cl)cc4)nc(N)n3)cc2)CC1 | 1.8 | – | – | inactive | 13 | inactive |
| Cc1nc(-c2ccccc2)cc(-c2ccc(N3CCN(C)CC3)cc2)n1 | 2.8 | – | – | inactive | 79.7 | inactive |
| CN1CCN(c2ccc(-c3cc(-c4ccccc4[N+](=O)[O-])ncn3)cc2)CC1 | 15.2 | – | – | inactive | 46.9 | inactive |
| CN1CCN(c2ccc(-c3cc(-c4ccc(Cl)cc4Cl)ncn3)cc2)CC1 | 2.4 | – | – | inactive | > 100 | inactive |
| Cc1nc(-c2ccc(N3CCN(C)CC3)cc2)cc(-c2ccc(Cl)cc2Cl)n1 | 10.1 | – | – | inactive | > 100 | inactive |
| CN1CCN(c2ccc(-c3cc(-c4ccccc4[N+](=O)[O-])nc(N)n3)cc2)CC1 | 14 | – | – | inactive | 7.1 | inactive |
| CN1CCN(c2ccc(-c3cc(-c4ccccc4Br)nc(N)n3)cc2)CC1 | 10.3 | – | – | inactive | 11.6 | inactive |
| CN1CCN(c2ccc(-c3cc(-c4cccc(Cl)c4)ncn3)cc2)CC1 | 1.7 | – | – | inactive | 36.3 | inactive |
| Cc1nc(-c2ccc(N3CCN(C)CC3)cc2)cc(-c2ccccc2Br)n1 | 4.3 | – | – | inactive | 35.2 | inactive |
| CN1CCN(c2ccc(-c3cc(-c4ccccc4Cl)nc(N)n3)cc2)CC1 | 20.2 | – | – | inactive | 40 | inactive |
| CSc1ccc(OCc2ncc([N+](=O)[O-])n2C)cc1 [FEXINIDAZOLE] | – | 0.76 | 0.76 | – | – | – |
| CN1CCN(c2ccc(-c3cc(-c4ccccc4Br)ncn3)cc2)CC1 | 9.7 | – | – | inactive | 39.6 | inactive |
| CN1CCN(c2ccc(-c3cc(-c4cccc(Cl)c4)nc(N)n3)cc2)CC1 | 1.7 | – | – | inactive | 79.7 | inactive |

Further compounds by falling EC50 [1], results first:

| EC50 [1] [µM] | EC50 [3] [µM] | EC90 [3] [µM] | Structure (SMILES) | Activity (Leishmania donovani) | EC50 [2] [µM] | Activity (Trypanosoma cruzi) |
| --- | --- | --- | --- | --- | --- | --- |
| 1.7 | – | – | Cc1nc(-c2ccc(N3CCN(C)CC3)cc2)cc(-c2cccc(Cl)c2)n1 | inactive | 20.8 | inactive |
| 1.6 | – | – | Cc1nc(-c2ccc(N3CCN(C)CC3)cc2)cc(-c2cccc(Br)c2)n1 | inactive | 21.1 | inactive |
| 1.6 | – | – | CN1CCN(c2ccc(-c3cc(-c4ccc(Br)cc4)nc(N)n3)cc2)CC1 | inactive | 5.1 | inactive |
| 1.6 | – | – | CN1CCN(c2ccc(-c3cc(-c4cccc(Br)c4)ncn3)cc2)CC1 | inactive | 64.5 | inactive |
| 1.1 | – | – | CN1CCN(c2ccc(-c3cc(-c4cccc(Br)c4)nc(N)n3)cc2)CC1 | inactive | 33.6 | inactive |
| 0.9 | – | – | Cc1nc(-c2ccc(Br)cc2)cc(-c2ccc(N3CCN(C)CC3)cc2)n1 | inactive | 11.2 | inactive |
| 0.6 | – | – | Cc1nc(-c2ccc(Cl)cc2)cc(-c2ccc(N3CCN(C)CC3)cc2)n1 | inactive | 5.3 | inactive |
| 0.6 | – | – | CN1CCN(c2ccc(-c3cc(-c4ccc(Br)cc4)ncn3)cc2)CC1 | inactive | 14.4 | inactive |
| 0.5 | – | – | CN1CCN(c2ccc(-c3cc(-c4ccc(Cl)cc4Cl)nc(N)n3)cc2)CC1 | inactive | 7.4 | inactive |
| 0.5 | – | – | CN1CCN(c2ccc(-c3cc(-c4ccc(Cl)cc4)ncn3)cc2)CC1 | inactive | 16.4 | inactive |

From ChEMBL document CHEMBL5576069, “Novel 4-[4-(4-methylpiperazin-1-yl)phenyl]-6-arylpyrimidine derivatives and their antitrypanosomal activities against T.brucei” (Bioorg Med Chem Lett, 2024)
